Each compound was assayed on Kelly Neuroblastoma cells (assay: ATPlite Luminescence viability assay, Kelly neuroblastoma cells, 72 h). Conditions: Kelly Neuroblastoma cells, ATPlite, class symbols, read-out: IC50 of inventive bispecific compounds.
Type: cell-based
Description: Kelly Neuroblastoma cells were seeded at 1,000 cells per well in 384 well, white plates and were treated in a dose-dependent manner for 72 h.

| SMILES | IC50 |
| --- | --- |
| Cc1noc(C)c1-c1ccn2c(NC3CCCCC3)c(CCc3ccc(NC(=O)CCCCCCCCCCCNC(=O)COc4cccc5c4C(=O)N(C4CCC(=O)NC4=O)C5=O)cc3)nc2c1 (centres unmarked) [Compound 10, N-(4-(2-(3-(cyclohexylamino)-7-(3,5-dimethylisoxazol-4-yl)imidazo[1,2-a]pyridin-2-yl)ethyl)phenyl)-12-(2-((2-(2,6-dioxopiperidin-3-yl)-1,3-dioxoisoindolin-4-yl)oxy)acetamido)dodecanamide] | > 10 µM |
| Cc1noc(C)c1-c1ccn2c(NC3CCCCC3)c(CCc3ccc(NC(=O)CCOCCOCCOCCOCCOCCOCCNc4cccc5c4C(=O)N(C4CCC(=O)NC4=O)C5=O)cc3)nc2c1 (centres unmarked) [Compound 16, N-(4-(2-(3-(cyclohexylamino)-7-(3,5-dimethylisoxazol-4-yl)imidazo[1,2-a]pyridin-2-yl)ethyl)phenyl)-1-((2-(2,6-dioxopiperidin-3-yl)-1,3-dioxoisoindolin-4-yl)amino)-3,6,9,12,15,18-hexaoxahenicosan-21-amide] | 1 to 10 µM |
| Cc1noc(C)c1-c1ccn2c(NC3CCCCC3)c(CCc3ccc(NC(=O)c4ccc(CNc5cccc6c5C(=O)N(C5CCC(=O)NC5=O)C6=O)cc4)cc3)nc2c1 (centres unmarked) [Compound 18, N-(4-(2-(3-(cyclohexylamino)-7-(3,5-dimethylisoxazol-4-yl)imidazo[1,2-a]pyridin-2-yl)ethyl)phenyl)-4-(((2-(2,6-dioxopiperidin-3-yl)-1,3-dioxoisoindolin-4-yl)amino)methyl)benzamide] | > 10 µM |
| Cc1noc(C)c1-c1ccc2nc(-c3ccc(N4CCN(C(=O)CCOCCOCCOCCNC(=O)COc5cccc6c5C(=O)N(C5CCC(=O)NC5=O)C6=O)CC4)cc3)c(NC3CCCCC3)n2c1 (centres unmarked) [Compound 4, N-(2-(2-(2-(3-(4-(4-(3-(cyclohexylamino)-6-(3,5-dimethylisoxazol-4-yl)imidazo[1,2-a]pyridin-2-yl)phenyl)piperazin-1-yl)-3-oxopropoxy)ethoxy)ethoxy)ethyl)-2-((2-(2,6-dioxopiperidin-3-yl)-1,3-dioxoisoindolin-4-yl)oxy)acetamide] | > 10 µM |
| Cc1noc(C)c1-c1ccn2c(NCc3ccccc3)c(-c3ccc(N4CCN(C(=O)CCOCCOCCOCCOCCOCCOCCNc5cccc6c5C(=O)N(C5CCC(=O)NC5=O)C6=O)CC4)cc3)nc2c1 (centres unmarked) [Compound 5, 4-((21-(4-(4-(3-(benzylamino)-7-(3,5-dimethylisoxazol-4-yl)imidazo[1,2-a]pyridin-2-yl)phenyl)piperazin-1-yl)-21-oxo-3,6,9,12,15,18-hexaoxahenicosyl)amino)-2-(2,6-dioxopiperidin-3-yl)isoindoline-1,3-dione] | > 10 µM |
| Cc1noc(C)c1-c1ccn2c(NC3CCCCC3)c(CCc3ccc(NC(=O)CCCCCNc4ccc5c(c4)C(=O)N(C4CCC(=O)NC4=O)C5=O)cc3)nc2c1 (centres unmarked) [Compound 14, N-(4-(2-(3-(cyclohexylamino)-7-(3,5-dimethylisoxazol-4-yl)imidazo[1,2-a]pyridin-2-yl)ethyl)phenyl)-6-((2-(2,6-dioxopiperidin-3-yl)-1,3-dioxoisoindolin-5-yl)amino)hexanamide] | 1 to 10 µM |
| Cc1noc(C)c1-c1ccn2c(NC3CCCCC3)c(CCc3ccc(NC(=O)C4CCC(Nc5cccc6c5C(=O)N(C5CCC(=O)NC5=O)C6=O)CC4)cc3)nc2c1 (centres unmarked) [Compound 17, N-(4-(2-(3-(cyclohexylamino)-7-(3,5-dimethylisoxazol-4-yl)imidazo[1,2-a]pyridin-2-yl)ethyl)phenyl)-4-((2-(2,6-dioxopiperidin-3-yl)-1,3-dioxoisoindolin-4-yl)amino)cyclohexane-1-carboxamide] | 1 to 10 µM |
| Cc1noc(C)c1-c1ccn2c(NC3CCCCC3)c(CCc3ccc(NC(=O)CCCCCCCCCCCNc4cccc5c4C(=O)N(C4CCC(=O)NC4=O)C5=O)cc3)nc2c1 (centres unmarked) [Compound 9, N-(4-(2-(3-(cyclohexylamino)-7-(3,5-dimethylisoxazol-4-yl)imidazo[1,2-a]pyridin-2-yl)ethyl)phenyl)-12-((2-(2,6-dioxopiperidin-3-yl)-1,3-dioxoisoindolin-4-yl)amino)dodecanamide] | > 10 µM |
| Cc1noc(C)c1-c1ccn2c(NCc3ccccc3)c(-c3ccc(N4CCN(C(=O)CCOCCOCCOCCNc5cccc6c5C(=O)N(C5CCC(=O)NC5=O)C6=O)CC4)cc3)nc2c1 (centres unmarked) [Compound 6, 4-((2-(2-(2-(3-(4-(4-(3-(benzylamino)-7-(3,5-dimethylisoxazol-4-yl)imidazopyridin-2-yl)phenyl)piperazin-1-yl)-3-oxopropoxy)ethoxy)ethoxy)ethyl)amino)-2-(2,6-dioxopiperidin-3-yl)isoindoline-1,3-dione] | 1 to 10 µM |

Continued, values first:

| IC50 | SMILES |
| --- | --- |
| > 10 µM | Cc1noc(C)c1-c1ccc2c(c1)nc(CCc1ccc(NC(=O)CCCCCCCCCCCNC(=O)COc3cccc4c3C(=O)N(C3CCC(=O)NC3=O)C4=O)cc1)n2CCN1CCOCC1 (centres unmarked) [Compound 24, N-(4-(2-(5-(3,5-dimethylisoxazol-4-yl)-1-(2-morpholinoethyl)-1H-benzo[d]imidazol-2-yl)ethyl)phenyl)-12-(2-((2-(2,6-dioxopiperidin-3-yl)-1,3-dioxoisoindolin-4-yl)oxy)acetamido)dodecanamide] |
| > 10 µM | COc1ccc(CCc2nc3cc(-c4c(C)noc4C)ccc3n2C[C@H](C)N2CCN(C(=O)CCCCCCCCCNc3ccc4c(c3)C(=O)N(C3CCC(=O)NC3=O)C4=O)CC2)cc1Cl (stereo partly drawn) [Compound 20, 5-((10-(4-((S)-1-(2-(3-chloro-4-methoxyphenethyl)-5-(3,5-dimethylisoxazol-4-yl)-1H-benzo[d]imidazol-1-yl)propan-2-yl)piperazin-1-yl)-10-oxodecyl)amino)-2-(2,6-dioxopiperidin-3-yl)isoindoline-1,3-dione] |
| < 0.1 µM | Cc1noc(C)c1-c1ccc2c(c1)nc([C@@H]1CCCC(=O)N1c1ccc(F)c(F)c1)n2[C@H]1CC[C@H](NC(=O)CCCCCCCCCNc2cccc3c2C(=O)N(C2CCC(=O)NC2=O)C3=O)CC1 (stereo partly drawn) [Compound 29, N-((1S,4r)-4-(2-((S)-1-(3,4-difluorophenyl)-6-oxopiperidin-2-yl)-5-(3,5-dimethylisoxazol-4-yl)-1H-benzo[d]imidazol-1-yl)cyclohexyl)-10-((2-(2,6-dioxopiperidin-3-yl)-1,3-dioxoisoindolin-4-yl)amino)decanamide] |
| > 10 µM | COc1ccc(CCc2nc3cc(-c4c(C)noc4C)ccc3n2C[C@H](C)N2CCN(C(=O)CCCCCNc3ccc4c(c3)C(=O)N(C3CCC(=O)NC3=O)C4=O)CC2)cc1Cl (stereo partly drawn) [Compound 21, 5-((6-(4-((S)-1-(2-(3-chloro-4-methoxyphenethyl)-5-(3,5-dimethylisoxazol-4-yl)-1H-benzo[d]imidazol-1-yl)propan-2-yl)piperazin-1-yl)-6-oxohexyl)amino)-2-(2,6-dioxopiperidin-3-yl)isoindoline-1,3-dione] |
| > 10 µM | Cc1noc(C)c1-c1ccc2c(c1)nc(CCc1ccc(NC(=O)CCCCCCCCCCCNc3cccc4c3C(=O)N(C3CCC(=O)NC3=O)C4=O)cc1)n2CCN1CCOCC1 (centres unmarked) [Compound 23, N-(4-(2-(5-(3,5-dimethylisoxazol-4-yl)-1-(2-morpholinoethyl)-1H-benzo[d]imidazol-2-yl)ethyl)phenyl)-12-((2-(2,6-dioxopiperidin-3-yl)-1,3-dioxoisoindolin-4-yl)amino)dodecanamide] |
| > 10 µM | Cc1noc(C)c1-c1ccc2c(c1)nc(CCc1ccc(NC(=O)CCOCCOCCOCCNc3cccc4c3C(=O)N(C3CCC(=O)NC3=O)C4=O)cc1)n2CCN1CCOCC1 (centres unmarked) [Compound 22, N-(4-(2-(5-(3,5-dimethylisoxazol-4-yl)-1-(2-morpholinoethyl)-1H-benzo[d]imidazol-2-yl)ethyl)phenyl)-3-(2-(2-(2-((2-(2,6-dioxopiperidin-3-yl)-1,3-dioxoisoindolin-4-yl)amino)ethoxy)ethoxy)ethoxy)propanamide] |
| > 10 µM | Cc1noc(C)c1-c1ccc2c(c1)nc(CCc1ccc(NC(=O)CCOCCOCCOCCNc3cccc4c3C(=O)N(C3CCC(=O)NC3=O)C4=O)cc1)n2CC(C)N1CCOCC1 (centres unmarked) [Compound 27, N-(4-(2-(5-(3,5-dimethylisoxazol-4-yl)-1-(2-morpholinopropyl)-1H-benzo[d]imidazol-2-yl)ethyl)phenyl)-3-(2-(2-(2-((2-(2,6-dioxopiperidin-3-yl)-1,3-dioxoisoindolin-4-yl)amino)ethoxy)ethoxy)ethoxy)propanamide] |
| > 10 µM | Cc1noc(C)c1-c1ccc2c(c1)nc(CCc1ccc(NC(=O)CCCCCNc3cccc4c3C(=O)N(C3CCC(=O)NC3=O)C4=O)cc1)n2CC(C)N1CCOCC1 (centres unmarked) [Compound 25, N-(4-(2-(5-(3,5-dimethylisoxazol-4-yl)-1-(2-morpholinopropyl)-1H-benzo[d]imidazol-2-yl)ethyl)phenyl)-6-((2-(2,6-dioxopiperidin-3-yl)-1,3-dioxoisoindolin-4-yl)amino)hexanamide] |
| > 10 µM | Cc1noc(C)c1-c1ccc2c(c1)nc(CCc1ccc(NC(=O)CCCCCCCNc3cccc4c3C(=O)N(C3CCC(=O)NC3=O)C4=O)cc1)n2CC(C)N1CCOCC1 (centres unmarked) [Compound 26, N-(4-(2-(5-(3,5-dimethylisoxazol-4-yl)-1-(2-morpholinopropyl)-1H-benzo[d]imidazol-2-yl)ethyl)phenyl)-8-((2-(2,6-dioxopiperidin-3-yl)-1,3-dioxoisoindolin-4-yl)amino)octanamide] |
| > 10 µM | COc1ccc(CCc2nc3cc(-c4c(C)noc4C)ccc3n2C[C@H](C)N2CCN(C(=O)CCOCCOCCOCCNc3ccc4c(c3)C(=O)N(C3CCC(=O)NC3=O)C4=O)CC2)cc1Cl (stereo partly drawn) [Compound 19, 5-((2-(2-(2-(3-(4-((S)-1-(2-(3-chloro-4-methoxyphenethyl)-5-(3,5-dimethylisoxazol-4-yl)-1H-benzo[d]imidazol-1-yl)propan-2-yl)piperazin-1-yl)-3-oxopropoxy)ethoxy)ethoxy)ethyl)amino)-2-(2,6-dioxopiperidin-3-yl)isoindoline-1,3-dione] |

Same assay, conditions: Kelly Neuroblastoma cells, ATPlite, read-out: IC50

| SMILES | IC50 |
| --- | --- |
| Cc1noc(C)c1-c1ccn2c(NCc3ccccc3)c(-c3ccc(N4CCN(C(=O)CCOCCOCCOCCNc5cccc6c5C(=O)N(C5CCC(=O)NC5=O)C6=O)CC4)cc3)nc2c1 (centres unmarked) [Compound 6, 4-((2-(2-(2-(3-(4-(4-(3-(benzylamino)-7-(3,5-dimethylisoxazol-4-yl)imidazopyridin-2-yl)phenyl)piperazin-1-yl)-3-oxopropoxy)ethoxy)ethoxy)ethyl)amino)-2-(2,6-dioxopiperidin-3-yl)isoindoline-1,3-dione] | 1.27 µM |

Reference: patent US12496348B2, “Small molecule target bromo/acetyl proteins and uses thereof” (DANA-FARBER CANCER INSTITUTE, INC., priority 2019, dated 2025)
